What was measured:
[1] = tested on: STAT3 phosphorylation in MCF-7 cells; test: Western blot of STAT3 phosphorylation, MCF-7; assay type: cell-based, human
Protocol: (§1) Therefore, in vitro experiments were performed to evaluate the effect of compound 3f on the phosphorylation of STAT3 in MCF-7 and T47D cells, utilizing our laboratory protocol. For this purpose, Western blot analysis was performed after the treatment of MCF-7 and T47D cells with compound 3f (0, 1, 3, 5 μM) and using p-STAT3 (Tyr705), p-STAT3 (Ser727), and STAT3 antibodies for blotting.
(§2) As previously reported, whole-cell lysates from cells treated with compound 3f were prepared to detect protein expression and phosphorylation using a lysis buffer [Tris (20 mM, pH 7.4), NaCl (250 mM), EDTA (2 mM, pH 8.0), Triton X-100 (0.1%), aprotinin (0.01 mg/mL), leupeptin (0.005 mg/mL), phenylmethane sulfonyl fluoride (0.4 mM), and NaVO4 (4 mM)]. To remove insoluble material, lysates were centrifuged at 13,000 rpm for 15 min.
(§3) Equal protein concentrations of cell lysate were resolved on sodium dodecyl sulfate-polyacrylamide gel electrophoresis, followed by transfer to nitrocellulose membranes as reported previously. Incubation was carried out overnight at 4 °C with antibodies after treatment with 5% skim milk. Afterward, the membranes were washed, probed with HRP-conjugated secondary antibodies for 2 h, and then visualized using chemiluminescence.
(§4) Figure 3 The lead compound 3f decreases the phosphorylation of STAT3 in MCF-7 and T47D cells in a concentration (A) and time-dependent (B) manner. MCF-7 and T47D cells were treated with the indicated concentration of 3f for 4 h. MCF-7 and T47D cells were treated with 5 µM of compound for the indicated time intervals. Thereafter, equal amounts of lysates were analyzed by Western blot analysis using antibodies against p-STAT3(Tyr705), p-STAT3(Ser727), or STAT3. The expression of each protein was quantified. β-ACTIN was used as input control.

MCF-7 cells = test: Alamar Blue cell viability assay, MCF-7; assay type: cell-based, human; details: MCF-7 cell viability
Source text: (§5) The goal herein was to assess the ability of imidazopyridine-tethered pyrazolines to inhibit cell viability in mammary carcinoma cells (using the Alamar Blue assay), since pyridine-fused pyrazoles were previously shown to inhibit cell viability in various breast cancer cells. […] The low chemical stability of thio-urea-based compounds may account for the inactivity of most thiourea-conjugated pyrazolines (excluding 4g) against TNBC cells.
(§6) MCF-7 cells were procured from Procell Life Science and Technology Co. LTD, Wuhan, China. Human breast cancer T47D, BT474, and SK-BR-3 cells were obtained from American Type Culture Collection (Washington, DC, NW, USA). Cells (2000) were cultured in MEM or Leibovitz’s L-15 medium enriched with 2% FBS and maintained in a humidified atmosphere of 5% CO2 at 37 °C. A stock solution of DMSO-dissolved compounds was prepared, and this solution was diluted with culture medium as required. MCF-7 Cells (4 × 10^3) were cultured in 96-well plates for 12 h and then treated for 72 h with compounds at concentrations of […]. Using Alamar Blue, the compounds were evaluated for their inhibitory effects
Figure 2 Inhibitory effect of compounds 3f (A), 3e (B), 4g (C), and 3g (D) on the viability of MCF-7 cells. MCF-7 cells were treated with various concentrations of 2-pyrazolines for 72 h and the viability of cells was analyzed by Alamar Blue assays. The results are presented as mean ± S.E.M. of triplicate determinations.

BT-474 cells = test: Alamar Blue cell viability assay, BT-474; assay type: cell-based, human; details: for IC50: Homo sapiens, BT-474 cell viability, Alamar Blue
Source text: as §5, §6

[2] = tested on: nuclear translocation of STAT3 in T47D cells; test: Immunocytochemistry of STAT3 nuclear translocation, T47D; assay type: cell-based, human; details: 10 μM for 4 h (method) / 5 μM (Figure 10 legend)
Protocol: (§7) Finally, we attempted to understand the effect of compound 3f on the blocking of pSTAT3 into nuclear functionally since pSTAT3 dimers could enter the nucleus to give transcription. For this purpose, we conducted an immunocytochemistry assay using MCF-7 and T47D cells. […] We also analyzed the distribution of phospho-STAT3 in the nucleus and cytoplasm using fluorescent-labeled antibodies.
(§8) As described earlier, STAT3 phosphorylation in cells was quantified. After compound 3f treatment (10 μM for 4 h), cells were fixed for 20 min with paraformaldehyde (4%). Thereafter, cells were treated with 0.2% Triton X-100 in phosphate-buffered saline for permeabilization, followed by blocking with 5% bovine serum albumin for 1 h. Then, the preparation was incubated overnight at 4 °C with a rabbit polyclonal anti-human STAT3 antibody (dilution, 1:100). […] The slides were mounted and analyzed under an Olympus FluoView FV1000 confocal microscope (Tokyo, Japan).
(§9) Figure 10 The nuclear localization of STAT3 in MCF-7 (A) and T47D (B) cells was inhibited by compound 3f. MCF-7 and T47D cells were treated with the compound 3f (5 μM), and then analyzed for intracellular distribution by immunocytochemistry. […] The fluorescence intensity of p-STAT3 and STAT3 was performed. […]

T47D cells = test: Alamar Blue cell viability assay, T47D; assay type: cell-based, human; details: for IC50: Homo sapiens, T47D cell viability, Alamar Blue
Source text: as §5, §6

[3] = tested on: nuclear translocation of STAT3 in MCF-7 cells; test: Immunocytochemistry of STAT3 nuclear translocation, MCF-7; assay type: cell-based, human; details: MCF-7, immunocytochemistry, 10 μM for 4 h (method) / 5 μM (Figure 10 legend)
Protocol: as §7, §8, §9

MCF-10A cells = test: Alamar Blue cell viability assay, normal MCF-10A; assay type: cell-based; details: Homo sapiens, normal MCF-10A cell viability
SK-BR-3 cells = test: Alamar Blue cell viability assay, SK-BR-3; assay type: cell-based, human; details: Homo sapiens, SK-BR-3 cell viability
Source text: as §5, §6

TNBC cells = test: Effect against TNBC cells; assay type: cell-based; details: in words
Source text: as §5

[4] = tested on: STAT3 phosphorylation in T47D cells; test: Western blot of STAT3 phosphorylation, T47D; assay type: cell-based, human
Protocol: as §1, §2, §3, §4

breast cancer cells = tested on: breast cancer cells; set-up: method as in PMID 33126089; details: read-out: IC50 anti-proliferation against breast cancer cells; cited from earlier work
[5] = tested on: IL-6-induced STAT3 phosphorylation in patient-derived HGG cells; set-up: method as in PMID 31361777; details: cited from earlier work
[6] = tested on: phospho-STAT3 in hepatocellular carcinoma cells; set-up: method as in PMID 30261753; details: cited from earlier work
[7] = MCF-7, 5 µM, indicated time intervals
[8] = T47D, 5 µM, indicated time intervals

SMILES | IC50 (MCF-7 cells; Homo sapiens, MCF7, 72 h) [µM] | IC50 (BT-474 cells) [µM] | melting point [°C] | IC50 (T47D cells) [µM] | IC50 (MCF-10A cells) [µM] | IC50 (SK-BR-3 cells) [µM] | effect against TNBC cells (TNBC cells) | further results
Cc1ccc2nc(C)c(C3=NN(C(=O)CN4CCN(c5cccc(Cl)c5Cl)CC4)C(c4cccc([N+](=O)[O-])c4)C3)n2c1 (stereo not drawn) [Compound 3f, 2-(4-(2,3-Dichlorophenyl)piperazin-1-yl)-1-(3-(2,6-dimethylimidazo[1,2-a]pyridin-3-yl)-5-(3-nitrophenyl)-4,5-dihydro-1H-pyrazol-1-yl)ethanone] | 9.2 | 13.9 ± 1.32 | 122 to 124 | 23.5 ± 1.25 | > 100 | > 100 | significant effect | phosphorylation level of STAT3 at Ser727, dose dependence ([1]; MCF-7, 0, 1, 3, 5 μM, 4 h): reduced the phosphorylation level; phosphorylation level of STAT3 at Tyr705, dose dependence ([1]; MCF-7, 0, 1, 3, 5 μM, 4 h): reduced the phosphorylation level; total STAT3 protein expression ([1]; MCF-7, 0, 1, 3, 5 μM, 4 h): without affecting the total STAT3 protein expression; phosphorylation of STAT3 at Ser727, time dependence [1, 7]: reduced the phosphorylation; phosphorylation of STAT3 at Tyr705, time dependence [1, 7]: reduced the phosphorylation; IC50 (MCF-7 cells; 72 h): 9.27 ± 0.97 µM; viability of BT-474 cells (BT-474 cells; in words): inhibited in a dose-dependent manner; nuclear translocation of STAT3 [2]: inhibited the nuclear translocation; nuclear translocation of pSTAT3 [2]: block the nuclear translocation; viability of T47D cells (T47D cells; in words): inhibited in a dose-dependent manner; nuclear translocation of STAT3 [3]: inhibited the nuclear translocation; nuclear translocation of pSTAT3 [3]: block the nuclear translocation; phosphorylation level of STAT3 at Ser727, dose dependence ([4]; T47D, 0, 1, 3, 5 μM, 4 h): reduced the phosphorylation level; phosphorylation level of STAT3 at Tyr705, dose dependence ([4]; T47D, 0, 1, 3, 5 μM, 4 h): reduced the phosphorylation level; total STAT3 protein expression ([4]; T47D, 0, 1, 3, 5 μM, 4 h): without affecting the total STAT3 protein expression; phosphorylation of STAT3 at Ser727, time dependence [4, 8]: reduced the phosphorylation; phosphorylation of STAT3 at Tyr705, time dependence [4, 8]: reduced the phosphorylation
Cc1ccc2nc(C)c(C3=NN(C(=O)CN4CCN(c5ccc(F)c(F)c5)CC4)C(c4cccc([N+](=O)[O-])c4)C3)n2c1 (stereo not drawn) [Compound 3h, 2-(4-(3,4-Difluorophenyl)piperazin-1-yl)-1-(3-(2,6-dimethylimidazo[1,2-a]pyridin-3-yl)-5-(3-nitrophenyl)-4,5-dihydro-1H-pyrazol-1-yl)ethanone] | 19.6 ± 1.29 | 3.06 ± 0.32 | 192 to 194 | 12.5 ± 1.01 | 6.27 ± 0.26 | 38.8 ± 1.42 | significant effect | –
Cc1ccc2nc(C)c(C3=NN(C(=S)Nc4ccc([N+](=O)[O-])cc4)C(c4cccc([N+](=O)[O-])c4)C3)n2c1 (stereo not drawn) [Compound 4b, 3-(2,6-Dimethylimidazo[1,2-a]pyridin-3-yl)-5-(3-nitrophenyl)-N-(4-nitrophenyl)-4,5-dihydro-1H-pyrazole-1-carbothioamide] | 65.4 ± 1.82 | 7.26 ± 0.54 | 230 to 232 | 45.6 ± 1.43 | > 100 | 69 ± 1.41 | significant effect | –
COc1cc(Nc2cc(-c3ccnn3C)cc3cc(C(C)=O)oc23)cc(OC)c1 [Compound C6] | – | – | – | – | – | – | – | IC50 (breast cancer cells): 160 nM
CC(C)CCc1cc(-c2ccc(Br)cc2)n(-c2ccc(S(N)(=O)=O)cc2)n1 [MNS1-Leu] | – | – | – | – | – | – | – | Akt, STAT1, JAK2, or ERK1/2 phosphorylation [5]: without adversely affecting; IL-6-induced STAT3 phosphorylation [5]: inhibited
COc1cc(-c2cc3ccccc3[nH]2)[nH]c1-c1nc2cc(Br)cnc2[nH]1 [compound 16] | – | – | – | – | – | – | – | level of phospho-STAT3 and downstream signaling cascades [6]: reduce the level

— paper PMC9952374, “De Novo Design of Imidazopyridine-Tethered Pyrazolines That Target Phosphorylation of STAT3 in Human Breast Cancer Cells” (Bioengineering, 2023)
